Several values for one entry are separate records, joined by “and”; a condition that tells them apart may be missing. Identical values can stand only once.

A short description of the data set: solvent given as SMILES.

With `CCCCCCCCCCCCCCCC[n+]1ccc(/C=C/c2ccccc2O)cc1`, the absorption maximum by setting is: (in C1COCCO1) 558.2 nm; (in CC(C)=O) 547 nm; (in CC(C)O) 520.4 nm; (in CCCCCC) 530.1 nm; (in CCCCO) 523.4 nm; (in CCCO) 518.9 nm. Besides, the absorption maximum reads like this: (in CCO) 518.9 nm; (in CN(C)C=O) 549.1 nm; (in CO) 503.8 nm; (in CS(C)=O) 523.4 nm; (in Cc1ccccc1) 554.2 nm; (in ClC(Cl)(Cl)Cl) 548.4 nm. In addition, the absorption maximum is recorded as 554.2 nm (in ClC(Cl)Cl), 553.8 nm (in ClCCl) and 553.7 nm (in c1ccccc1).

For `COc1ccc(/C=C/C=C/C2=NC3C(=O)NC(N)=NC3N2[C@H]2C[C@H](O)[C@@H](CO)O2)cc1` (stereo partly specified), the absorption maximum is recorded as 354 nm (in C1COCCO1), 352 nm (in CC#N) and 342 nm (in CO).

As to `COc1ccc(/C=C/c2nc3ccccc3o2)cc1`, the absorption maximum runs as follows: (in C1CCCCC1) 330 nm; (in CO) 340 nm.

Turning to `Nc1ccc2cc3ccccc3cc2c1`, the absorption maximum (in C1CCCCC1) was determined as 397.61 nm.

In the case of `CCCCC(CC)COc1ccc2nc(-c3ccc(-c4c(C)noc4C)s3)sc2c1` (stereo unspecified), under “in ClCCl”, the absorption maximum stood at 359 nm.

`C=C(C)C(CN1C(=O)c2cccc3cccc(c23)C1=O)OO` (stereo unspecified): the absorption maximum (in CCO) is listed as 332 nm.

On to `O=C1c2ccccc2C2=Cc3cccc[n+]3[B-](F)(F)N12`, for which the absorption maximum by setting is: (in CCO) 391 nm; (in Cc1ccccc1) 399 nm; (in ClCCl) 396 nm and 385 nm.

As for `CCCCN1c2ccccc2Sc2cc(/C=C\c3cc(=O)oc4ccc(C)cc34)ccc21`, for the setting “in ClC(Cl)Cl”, the absorption maximum is listed as 423 nm.

Regarding `O=C1c2ccccc2C2=Cc3ccc4ccccc4[n+]3[B-](F)(F)N12`, the absorption maximum is, setting by setting: (in CCO) 450 nm; (in Cc1ccccc1) 458 nm; (in ClCCl) 454 nm.

In the case of `O=C1C=C(Nc2cccc(F)c2)C(=O)c2ccccc21`, the absorption maximum is reported as 440 nm (in CCCCCC) and 459 nm (in CO).

Turning to `COc1ccc(-c2c3ccc([nH]3)c3nc(c(-c4ccc([N+](=O)[O-])cc4)c4ccc([nH]4)c4ccc([nH]4)c(-c4ccc(OC)cc4)c4ccc2o4)C=C3)cc1`, the absorption maximum is on record as 446 nm (in C1CCOC1), 448 nm (in Cc1ccccc1) and 448 nm (in c1ccccc1).

With `COc1ccc(/C=C/c2cc(/C=C/c3ccc(OC)cc3)nc(/C=C/c3ccc(OC)cc3)n2)cc1`, where the note is “in ClCCl”, the absorption maximum is listed as 339 nm.

Regarding `CC/[NH+]=c1\cc2oc3cc(NCCO)c4ccccc4c3nc-2cc1C`, the absorption maximum is, setting by setting: (in CCO) 590 nm; (in O) 590 nm.

Compound `CC(C)[Si](C#Cc1c2nc3c(nc2c(C#C[Si](C(C)C)(C(C)C)C(C)C)c2nc4c(nc12)C1c2ccccc2C4c2ccccc21)C1c2ccccc2C3c2ccccc21)(C(C)C)C(C)C` gave an absorption maximum (in CCCCCC) of 450 nm.

In turn, `C[Si](C)(C)c1cc2c(cc3ccc4cccc5ccc2c3c45)[nH]1` came in with an absorption maximum (in CCOC(C)=O) of 392 nm.

For the compound `c1ccc(-c2nc(-c3ccc(N(c4ccccc4)c4ccccc4)cc3)n3ccccc23)cc1`, the absorption maximum worked out at 352 nm (in C1CCCCC1); 350 nm (in CC#N); 348 nm (in CO); 353 nm (in ClCCl); 360 nm (in O).

For the compound `c1ccc([B-]2(c3ccccc3)Oc3ccc4ccccc4c3-c3c4ccccc4nc[n+]32)cc1`, the absorption maximum (in Cc1ccccc1) is 451 nm.

With `COc1ccc2cc(-c3ccc([N+](=O)[O-])cc3)ccc2c1`, the absorption maximum worked out at 344 nm (in C1CCOC1), 341 nm (in CC#N), 346 nm (in ClC(Cl)Cl) and 345 nm (in ClCCl).

In the case of `CCCCCCn1c(=O)c2c3[nH]c4cc5sc6c([nH]c5cc4sc3c3c(=O)n(CCCCCC)c(=O)c3c2c1=O)c1c(=O)n(CCCCCC)c(=O)c1c1c(=O)n(CCCCCC)c(=O)c61`, the absorption maximum (in ClCCl) came to 549 nm.

Turning to `CN(C)c1ccc2c(-c3ccc(C(=O)[O-])cc3C(=O)[O-])c3ccc(=[N+](C)C)cc-3oc2c1`, the absorption maximum reads like this: (in CCO) 540 nm; (in O) 548 nm.

`CC1=CC(C)=[N+]2C1=C(c1ccc(N3CCCCC3)cc1)c1c(C)cc(C)n1[B-]2(F)F`: the absorption maximum is, setting by setting: (in C1CCOC1) 499 nm; (in CC#N) 496 nm; (in CC(=O)C(C)(C)C) 496 nm; (in CC(C)=O) 495 nm; (in CCCCCC) 500 nm; (in CCOC(C)=O) 498 nm. In addition, where the note is “in CO”, the absorption maximum was 500 nm and 497 nm.

Regarding `COc1ccc(-n2c(C)ccc2C)cc1`, the absorption maximum is recorded as 224 nm (in CC#N) and 222 nm (in CCCCCC).

For the compound `CN1C(=O)c2cccc3c(-n4c5ccccc5c5ccccc54)ccc(c23)C1=O`, the absorption maximum is, setting by setting: (in C1CCOC1) 408 nm; (in CCCCCC) 402 nm; (in ClC(Cl)Cl) 404 nm; (in ClCCl) 414 nm.

With `C(#Cc1ccccc1)C(C#Cc1ccccc1)=Cc1ccccc1`, the absorption maximum (in ClC(Cl)Cl) is given as 340 nm.

`CC1(C)C(/C=C/C2=C(c3ccc(C(=O)O)cc3)C(=C/C=C3/N(CCCCS(=O)(=O)[O-])c4ccccc4C3(C)C)/CCC2)=[N+](CCCCS(=O)(=O)[O-])c2ccccc21` displayed an absorption maximum (in CO) of 765 nm.

For `Cc1ccc(C2=CC(c3ccc(C)cc3)=[N+]3C2=Nc2c(-c4ccc(C)cc4)cc(-c4ccc(C)cc4)n2[B-]3(F)F)cc1`, for the setting “in ClC(Cl)Cl”, the absorption maximum was 652 nm.

For `C[C@]12SC(=O)C=C1c1nc(-c3ccc(O)cc3)[nH]c1C1=CC(=O)S[C@@]12C`, the absorption maximum (in CC#N) is given as 470 nm.

`c1ccc(N(c2ccccc2)c2ccc(-c3ncc(-c4cccs4)s3)cc2)cc1` came in with an absorption maximum (in CO) of 387 nm.

`Cc1cc(=O)oc2cc3c(cc12)c1c2ccccc2c2ccccc2c1c1c2ccccc2c2ccccc2c31` returned an absorption maximum (in ClC(Cl)Cl) of 386 nm.

For the compound `c1ccc(C2=C(c3ccccc3)[Si](c3ccccc3)(c3ccccc3)c3ccccc32)cc1`, for the setting “in C1CCOC1”, the absorption maximum is given as 330 nm.

Regarding `CCCCN1C(=O)c2cc(Oc3ccc(C(C)(C)C)cc3)c3c4c(Oc5ccc(C(C)(C)C)cc5)cc5c(=O)n6c(c7cc(Oc8ccc(C(C)(C)C)cc8)c(c8c(Oc9ccc(C(C)(C)C)cc9)cc(c2c38)C1=O)c4c57)=Cc1ccc2ccccc2[n+]1[B-]6(F)F`, the absorption maximum (in ClCCl) came to 648 nm.

Turning to `C[Si]1(C)c2cc(-c3ccc(N(c4ccccc4)c4ccccc4)cc3)ccc2C=Cc2ccc(-c3ccc(N(c4ccccc4)c4ccccc4)cc3)cc21`, the absorption maximum (in ClCCl) is 435 nm.

`CC(C)(C)c1ccc2c(c1)c1cc(C(C)(C)C)ccc1n2-c1ccc(-c2nc3c(C#N)ccc(C#N)c3nc2-c2ccc(-n3c4ccc(C(C)(C)C)cc4c4cc(C(C)(C)C)ccc43)cc2)cc1`: for the setting “in Cc1ccccc1”, the absorption maximum was determined as 467 nm.

Compound `Cc1cc2c(ccc3c(C)[n+](C)c(C)cc32)c(C)[n+]1C` had an absorption maximum (in CC#N) of 406 nm.

As for `CC(C)(C)c1ccc2c(c1)c1cc(C(C)(C)C)ccc1n2-c1ccc(S(=O)(=O)c2ccc(S(=O)(=O)c3ccc(-n4c5ccc(C(C)(C)C)cc5c5cc(C(C)(C)C)ccc54)cc3)cc2)cc1`, the absorption maximum (in Cc1ccccc1) came to 363 nm.

As for `Brc1ccc(-c2nc3sc4ccccc4c3s2)cc1`, where the note is “in CS(C)=O”, the absorption maximum came to 353 nm.

`N#Cc1c(-c2ccccc2)cc(N2c3ccccc3Oc3ccccc32)cc1-c1ccccc1` displayed an absorption maximum (in C1CCCCC1) of 398 nm.

`CCCCn1c2ccc(-c3cccs3)cc2c2c1c1c3ccc(-c4cccs4)cc3n(CCCC)c1c1c3ccc(-c4cccs4)cc3n(CCCC)c21`: for the setting “in C1CCOC1”, the absorption maximum is recorded as 337 nm.

As for `CC/[NH+]=c1\cc2oc3cc(NCCNC(=O)C(NC(=O)OC(C)(C)C)C(C)C)c4ccccc4c3nc-2cc1C` (stereo unspecified), the absorption maximum worked out at 590 nm (in CCO) and 590 nm (in O).

On to `Cc1ccc(-c2cc(-c3ccccc3Cl)c3c(N)nc(N4CCCC4)c(C#N)c3n2)cc1`, for which the absorption maximum was 414 nm (in CC#N); 422 nm (in CC(C)=O); 414 nm (in CC(C)O); 416 nm (in CO); 418 nm (in ClC(Cl)Cl); 422 nm (in ClCCl). The same compound registered an absorption maximum (in c1ccccc1) of 426 nm.

As to `CCc1ccccc1-c1c2ccccc2c(C#Cc2ccccc2)c2cc3ccccc3cc12`, the absorption maximum (in ClCCl) amounted to 522 nm.

Regarding `CC(C)(C)c1ccc2c(c1)c1cc(C(C)(C)C)ccc1n2-c1ccc(N(c2ccc(-c3ccc(-c4ccc(N(c5ccc(-n6c7ccc(C(C)(C)C)cc7c7cc(C(C)(C)C)ccc76)cc5)c5ccc(-n6c7ccc(C(C)(C)C)cc7c7cc(C(C)(C)C)ccc76)cc5)cc4)c4nsnc34)cc2)c2ccc(-n3c4ccc(C(C)(C)C)cc4c4cc(C(C)(C)C)ccc43)cc2)cc1`, the absorption maximum (in ClCCl) was determined as 462 nm.

Consider `COc1ccc2c(c1)c1c(OC)c3ccccc3c(OC)c1n2C`, for which the absorption maximum is, setting by setting: (in C1CCCCC1) 421 nm; (in CC#N) 422 nm; (in CO) 421 nm; (in ClCCl) 425 nm.

As for `CCCCCCCCCCCCOc1cc(/C=C/c2ccc3c(c2)C(CC)(CC)c2cc(N4c5ccccc5Sc5ccccc54)ccc2-3)c(OCCCCCCCCCCCC)cc1/C=C/c1ccc2c(c1)C(CC)(CC)c1cc(N3c4ccccc4Sc4ccccc43)ccc1-2`, the absorption maximum runs as follows: (in C1CCOC1) 442.41 nm; (in CC#N) 436.72 nm; (in CCCCCC) 436.38 nm; (in Cc1ccccc1) 442.93 nm; (in ClCCl) 420 nm.

Turning to `COc1ccc2c(c1)c1cc(OC)ccc1n2-c1nc2ccccc2nc1-n1c2ccc(OC)cc2c2cc(OC)ccc21`, for the setting “in Cc1ccccc1”, the absorption maximum is 437 nm.

`C#Cc1cccc2ccccc12`: the absorption maximum reads like this: (in C1CCCCC1) 310 nm; (in CC#N) 306 nm; (in CO) 309 nm; (in ClCCl) 312 nm.

The values above are taken from the Deep4Chem optical property database.
